Legend:
Format in all cases: in vivo
[1] = tested on: surinam grass (Brachiaria decumbens); assay: Test E pre-/postemergence plant response; settings: Postemergence, scale 0 to 100
Source text: (§1) Seeds of plant species selected from bermudagrass (Cynodon dactylon), Surinam grass (Brachiaria decumbens), large crabgrass (Digitaria sanguinalis), green foxtail (Setaria viridis), goosegrass (Eleusine indica), johnsongrass (Sorghum halepense), kochia (Kochia scoparia), pitted morningglory (Ipomoea lacunosa), purple nutsedge (Cyperus rotundus), common ragweed (Ambrosia elation), black mustard (Brassica nigra), guineagrass (Panicum maximum), dallisgrass (Paspalum dilatatum), barnyardgrass (Echinochloa crus-galli), southern (S.) sandbur (Cenchrus echinatus), common sowthistle (Sonchus oleraceous), prickly sida (Sida spinosa), Italian ryegrass (Lolium multiflorum), common purslane (Portulaca oleracea), broadleaf signalgrass (Brachiaria platyphylla), common groundsel (Senecio vulgaris), common chickweed (Stellaria media), Virginia (V.) dayflower (Commelina virginica), tropical (T.) spiderwort (Commelina benghalensis), annual bluegrass (Poa annua), naked crabgrass (Digitaria nuda), itchgrass (Rottboellia cochinchinensis), quackgrass (Elytrigia repens), Canada horseweed (Conyza canadensis), field bindweed (Convolvulus arvensis), spanishneedles (Bidens bipinnata), common mallow (Malva sylvestris) and Russian thistle (Salsola kali) were planted and treated preemergence with test chemicals formulated in a non-phytotoxic solvent mixture which included a surfactant. At the same time, plants selected from these weed species were treated with postemergence applications of some of the test chemicals formulated in the same manner. Plants ranged in height from 2 to 18 cm (1- to 4-leaf stage) for postemergence treatments.
(§2) Treated plants and controls were maintained in a greenhouse for 14 to 21 days, after which time all species were compared to controls and visually evaluated. Plant response ratings, summarized in Table E, are based on a scale of 0 to 100 where 0 is no effect and 100 is complete control. A dash (-) response means no test result.

[2] = tested on: johnsongrass (Sorghum halepense); assay: Test E pre-/postemergence plant response; settings: Postemergence, scale 0 to 100
Source text: as §1, §2

[3] = tested on: large crabgrass (Digitaria sanguinalis); assay: Test E pre-/postemergence plant response; settings: Postemergence, scale 0 to 100
Source text: as §1, §2

[4] = tested on: bermudagrass (Cynodon dactylon); assay: Test E pre-/postemergence plant response; settings: Postemergence, scale 0 to 100
Source text: as §1, §2

[5] = tested on: naked crabgrass (Digitaria nuda); assay: Test E pre-/postemergence plant response; settings: Postemergence, scale 0 to 100
Source text: as §1, §2

[6] = tested on: broadleaf signalgrass (Brachiaria platyphylla); assay: Test E pre-/postemergence plant response; settings: Postemergence, scale 0 to 100
Source text: as §1, §2

[7] = tested on: purple nutsedge (Cyperus rotundus); assay: Test E pre-/postemergence plant response; settings: Postemergence, scale 0 to 100
Source text: as §1, §2

[8] = tested on: itchgrass (Rottboellia cochinchinensis); assay: Test E pre-/postemergence plant response; settings: Postemergence, scale 0 to 100
Source text: as §1, §2

[9] = tested on: southern (S.) sandbur (Cenchrus echinatus); assay: Test E pre-/postemergence plant response; settings: Postemergence, scale 0 to 100
Source text: as §1, §2

[10] = tested on: canarygrass (Phalaris minor); assay: Test C pre-/postemergence plant response; settings: Preemergence
Summary of the method: (§3)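 Plant response was judged by eye against untreated controls following 15 to 25 days in a controlled growth environment, using 0 for no effect and 100 for complete control. Treatments were made both preemergence and postemergence, the latter on plants of 1- to 4-leaf stage.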

[11] = tested on: windgrass (Apera spica-venti); assay: Test C pre-/postemergence plant response; settings: Preemergence
Summary of the method: as §3

[12] = tested on: annual bluegrass (Poa annua); assay: Test C pre-/postemergence plant response; settings: Preemergence
Summary of the method: as §3

wild oat (Avena fatua) = assay: Test C pre-/postemergence plant response; settings: Preemergence
Summary of the method: as §3

[13] = 8 g ai/ha, scale 0 to 100 (0 no effect, 100 complete control)
[14] = 16 g ai/ha, scale 0 to 100 (0 no effect, 100 complete control)
[15] = 31 g ai/ha, scale 0 to 100 (0 no effect, 100 complete control)
[16] = 62 g ai/ha, scale 0 to 100, 0 no effect, 100 complete control

Cc1cc(-c2ccc(Cl)cc2)nn1-c1c(OC(=O)c2cccc(Cl)c2)cnn(C)c1=O [Compound 32]
Plant response rating, Surinam Grass ([1]; 8 g ai/ha): 80 | Plant response rating, Surinam Grass ([1]; 31 g ai/ha): 100 | Plant response rating, Surinam Grass ([1]; 62 g ai/ha): 100 | Plant response rating, Johnsongrass ([2]; 8 g ai/ha): 50 | Plant response rating, Johnsongrass ([2]; 16 g ai/ha): 80 | Plant response rating, Johnsongrass ([2]; 31 g ai/ha): 98 | Plant response rating, Johnsongrass ([2]; 62 g ai/ha): 100 | Plant response rating, Crabgrass, Large ([3]; 8 g ai/ha): 35 | Plant response rating, Crabgrass, Large ([3]; 16 g ai/ha): 75 | Plant response rating, Crabgrass, Large ([3]; 31 g ai/ha): 75 | Plant response rating, Crabgrass, Large ([3]; 62 g ai/ha): 80 | Plant response rating, Bermudagrass ([4]; 8 g ai/ha): 5 | Plant response rating, Bermudagrass ([4]; 16 g ai/ha): 20 | Plant response rating, Bermudagrass ([4]; 31 g ai/ha): 40 | Plant response rating, Bermudagrass ([4]; 62 g ai/ha): 75 | Plant response rating, Crabgrass, Naked ([5]; 8 g ai/ha): 60 | Plant response rating, Crabgrass, Naked ([5]; 31 g ai/ha): 80 | Plant response rating, Crabgrass, Naked ([5]; 62 g ai/ha): 90 | Plant response rating, Signalgrass ([6]; 8 g ai/ha): 80 | Plant response rating, Signalgrass ([6]; 16 g ai/ha): 80 | Plant response rating, Signalgrass ([6]; 31 g ai/ha): 95 | Plant response rating, Signalgrass ([6]; 62 g ai/ha): 100 | Plant response rating, Nutsedge, Purple ([7]; 8 g ai/ha): 0 | Plant response rating, Nutsedge, Purple ([7]; 16 g ai/ha): 0 | Plant response rating, Nutsedge, Purple ([7]; 31 g ai/ha): 0 | Plant response rating, Nutsedge, Purple ([7]; 62 g ai/ha): 0 | Plant response rating, Itchgrass ([8]; 8 g ai/ha): 30 | Plant response rating, Itchgrass ([8]; 16 g ai/ha): 75 | Plant response rating, Itchgrass ([8]; 31 g ai/ha): 90 | Plant response rating, Itchgrass ([8]; 62 g ai/ha): 90 | Plant response rating, Sandbur, S. ([9]; 8 g ai/ha): 60 | Plant response rating, Sandbur, S. ([9]; 16 g ai/ha): 75 | Plant response rating, Sandbur, S. ([9]; 31 g ai/ha): 80 | Plant response rating, Sandbur, S. ([9]; 62 g ai/ha): 80 | Plant response rating, Canarygrass [10, 13]: 0 | Plant response rating, Canarygrass [10, 14]: 0 | Plant response rating, Canarygrass [10, 15]: 75 | Plant response rating, Canarygrass [10, 16]: 90 | Plant response rating, Windgrass [11, 13]: 0 | Plant response rating, Windgrass [11, 14]: 0 | Plant response rating, Windgrass [11, 15]: 0 | Plant response rating, Windgrass [11, 16]: 75 | Plant response rating, Bluegrass [12, 13]: 0 | Plant response rating, Bluegrass [12, 14]: 0 | Plant response rating, Bluegrass [12, 15]: 0 | Plant response rating, Bluegrass [12, 16]: 20 | Plant response rating, Oat, Wild (wild oat (Avena fatua); [13]): 0 | Plant response rating, Oat, Wild (wild oat (Avena fatua); [14]): 10 | Plant response rating, Oat, Wild (wild oat (Avena fatua); [15]): 65 | Plant response rating, Oat, Wild (wild oat (Avena fatua); [16]): 70

Reference: patent US20100267561A1, “HERBICIDAL PYRIDAZINONE DERIVATIVES” (priority 2007, published 2010)
